Experimental data reported in patent US20240327320A1, “NOVEL ROUTES OF CHEMICAL SYNTHESIS OF 20S(OH)D3, 20S,25(OH)2D3, 20S,23S(OH)2D3, AND 20S,23R(OH)2D3 AND THEIR MODIFICATION OF THE IMMUNE ACTIVITY OF PBMCS” (United State Government as represen ted by the Department …, priority 2023, published 2024).

Key:
[1] = system: Human epidermal keratinocytes (HEKn); test: Protein expression, immunofluorescence; assay type: cell-based; details: 48 h, FIG. 7C
Protocol: HEKn were cultured until the third passage before treatment. Keratinocytes were plated in a 96-well plate and at 80% confluence, 10^-7 M secosteroids (or 0.1% ethanol control) were added and cells were incubated for 48 h. Cells were fixed and stained with anti-involucrin (1:20, GTX-14504; Genetex, Irvine, CA, USA) anti-CK10 (1:300, Santa Cruz Biotechnology), anti-catalase (1:200, Santa Cruz Biotechnology) or anti-CK14 antibody with Alexa Fluor® 488 (1:500, Santa Cruz Biotechnology) and imaged at 10× magnification in Cytation 5 reader as described before (Chaiprasongsuk A, et. al., (2020) Free Radic Biol Med 155 87-9845; Slominski A T, et. al., (2017) Sci Rep 7(1) 11434; Chaiprasongsuk A, et. al., (2020) Int J Mol Sci 21(24)). Nuclei were stained with blue DAPI. Fluorescence intensity was measured using the Cytation 5 reader and ImageJ, and data were analyzed using Graph Pad Prizm.
FIG. 7C and FIG. 7D represent protein expression studies. Values are presented as percentage of fluorescence positive cells (FIG. 7C) or as mean fluorescence per cell (% of all cells (FIG. 7D). The values in FIG. 7D were calculated as mean green fluorescence vs DAPI blue fluorescence measured in ImageJ. Data are means±SD (n=3) and were analyzed using Student's t-test with p<0.05 (*), p<0.01 (**) or p<0.001 (***).

[2] = system: CD4 and CD8 T cells from human peripheral blood; test: T cell activation in PBMC, flow cytometry with TriMAP/FlowSOM; assay type: cell-based; details: 10^-7 M, 24 h, anti-CD3 and anti-CD28, compared to ethanol treated cells
Protocol: Human peripheral blood mononuclear cells (PBMC) from two healthy individuals were obtained from a pre-existing respository. Their use was approved by the University of Alabama at Birmingham Institutional Review Board (Human Subject Assurance Number FWA00005960) as an exempt protocol #4 (Dr C. Raman, P.I.). […] Informed consent is waived in accord with 45CFR46.116 (d). In 48 well plates, 0.5×10^6 PBMC/well were cultured in RPMI1640 containing, 5% charcoal adsorbed FBS and antibiotics and T cells were activated using […] anti-CD3 (clone 145-2C11) and 1 μg/ml anti-CD28 (clone 37.51) for 24 h (Janjetovic Z, et. al., (2021) Endocrinology 162(1), Chaiprasongsuk A, et. al., (2020) Free Radic Biol Med 155 87-98, Slominski A T, et. al., (2011) Am J Physiol Cell Physiol 300(3) C526-41, McGuire D J, et. al., (2014) Eur J Immunol 44(4) 1137-42, Sestero C M, et. al., (2012) J Immunol 189(6) 2918-30). The culture was treated with 10^-7 M 20S(OH)D3, 20S,25(OH)2D3, 20S,23S(OH)2D3, 20S,23R(OH)2D3 or 1α,25(OH)2D3 (Sigma-Aldrich, St. Louis, MO, USA) dissolved in ethanol and diluted in culture medium at the same time of addition of anti-CD3 and anti-CD28. The vehicle control comprised of 0.1% ethanol. At the end of assay the cells were stained with antibodies to CD4 (clone RPA-T4, BV-421), CD19 (clone HB19, BV-510), CD14 (clone HCD14, Alexa 700), CD137 (clone 4B4-1, BV605), CD8a (clone RPA-T8, FITC), ICOS (clone C398.4A, PE/Dazzle), PD1 (clone NAT105, PE), CD80 (clone 2D10, PerCP/Cy5.5), OX40 (clone ACT35, PE/Cy7), CD69 (clone FN50, APC), HLA-DR (clone L243, APC/Fire 750). All antibodies were from Biolegend except anti-CD8 was from Thermo Fisher. The stained cells were analyzed using a CytoFLEX (Beckman Coulter) flow cytometer.
For unbiased analysis of the multidimensional data, acomputational algorithm-based approaches was utilized (Quintelier K, et. al., (2021) Nature Protocols 16(8) 3775-3801). The flow cytometry standard (FCS) data files from each individual and treatment (two individuals, six treatments including ethanol, a total of 12 data files) were processed through the following workflow—compensation, gating on live cells, gating for single cells and subtraction of CD19+(B cells) and CD14+(monocytes). B cells and monocytes were removed from the analysis because only T cells (CD4+ and CD8+) are activated by anti-CD3 and anti-CD28. After these initial gating steps, a key word was added to each of the 12 FCS files, down sampled to 50,000 events/sample and concatenated. Down sampling ascertains that each sample is equally weighted, and concatenation ascertains that statistical analysis is applied equally. The concatenated files were first subjected to TriMAP analysis, a computational algorithm that clusters populations based on triplet relatedness followed by FlowSOM algorithm-based clustering (Quintelier K, et. al., (2021) Nature Protocols 16(8) 3775-3801). To perform these analyses, plugins within FlowJo (BD, CA, USA) were used.
T cells in peripheral blood from two healthy individuals were activated with anti-CD3 and anti-CD28 in the absence (ethanol) or presence of 10^−7 M of each of the vitamin D3 secosteroids for 24 h. The cells were stained for lineage markers (CD4, CD8, CD19, CD14) and a panel of activation induced markers (CD69, ICOS, OX40, CD137, PD1, HLADR) and expression data were collected using a flow cytometer. The gating strategy was live, single cell followed by CD4 and CD8 T cell populations. […]

SMILES	protein levels of involucrin, CK10, CK14, and catalase [1]	CD4 T cells of population 4 (down modulated CD4, increased CD69 and ICOS) [2]
C=C1CC[C@H](O)C/C1=C/C=C1\CCC[C@@]2(C)[C@H]1CC[C@@H]2[C@@](C)(O)CCCC(C)C [20S(OH)D3, (20S)-20-Hydroxyvitamin D3]	increasing the levels of involucrin, CK10, CK14, and catalase	increased the proportion of cells with population 4 phenotype
C=C1CC[C@H](O)C/C1=C/C=C1\CCC[C@@]2(C)[C@H]1CC[C@@H]2[C@@](C)(O)C[C@H](O)CC(C)C [20S,23R(OH)2D3, (20S,23R)-20,23-Dihydroxyvitamin D3]	increasing the levels of involucrin, CK10, CK14, and catalase	–
C=C1CC[C@H](O)C/C1=C/C=C1\CCC[C@@]2(C)[C@H]1CC[C@@H]2[C@@](C)(O)C[C@@H](O)CC(C)C [20S,23S(OH)2D3, (20S,23S)-20,23-Dihydroxyvitamin D3]	increasing the levels of involucrin, CK10, CK14, and catalase	fewer cells
C=C1CC[C@H](O)C/C1=C/C=C1\CCC[C@@]2(C)[C@H]1CC[C@@H]2[C@@](C)(O)CCCC(C)(C)O [20S,25(OH)2D3, (20S)-20,25-Dihydroxyvitamin D3]	increasing the levels of involucrin, CK10, CK14, and catalase	fewer cells
